{
  "source": "patent US20130150375A1",
  "about": "“GEPIRONE-ER TREATMENT OF MAJOR DEPRESSION IN PATIENTS TAKING NON-STEROIDAL ANTI-INFLAMMATORY DRUGS (NSAIDs)” (Fabre-Kramer Pharmaceuticals.Inc., priority 2011, published 2013)",
  "key": {"[1]": {"test_system": "presynaptic α-2-adrenoceptor", "conditions": "cited from earlier work"}, "[2]": {"conditions": "in vivo; cited from earlier work"}, "5-HT receptors": {"test_system": "5-HT receptors", "conditions": "cited from earlier work"}, "[3]": {"test_system": "post-synaptic receptors in the hippocampus", "conditions": "cited from earlier work"}, "[4]": {"test_system": "depressed patients taking an NSAID", "assay": "Individual patient cases from the study (Examples 1 and 2), HAMD-17", "assay_type": "in vivo, human", "conditions": "Example 2: person taking ibuprofen", "description": "The following Examples represent a sampling of the subjects studied:\nA person came to a psychiatric clinic complaining of depression. Their symptoms included: depressed mood, insomnia, lack of energy, low sex drive, and mild suicidal thoughts. They also were being treated for cardiac complains and was taking a daily NSAID (aspirin) to improve blood flow. They refused to discontinue their aspirin because their cardiologist had prohibited them from doing so. Their initial HAMD-17 was 26. After 8 weeks of treatment with Gepirone-ER all of their depressive symptoms had been eliminated.\nA person came into the same psychiatric clinic complaining of depression. Their symptoms included depressed mood, lethargy, guilt, and trouble waking up early in the morning. They were also being treated by their neurologist for chronic headaches with ibuprofen. They refused to discontinue the ibuprofen because the headaches interfered with their ability to work. Their initial HAMD-17 was 16. […] A further trial of a second SSRI (citalopram) also failed."}, "depressed subjects": {"test_system": "depressed subjects", "assay": "Antidepressant efficacy with and without concomitant NSAIDs in depressed subjects (HAMD-17)", "assay_type": "in vivo, human", "conditions": "for HAMD-17 CFB (change from baseline) / Remitters (HAMD-17 score of 7 or less after treatment) / Responders (50% improvement in HAMD-17): end of treatment", "description": "To control for a placebo effect, 1045 depressed patients taking placebo were studied. Finally, 1041 depressed subjects taking gepirone-ER were studied. In contrast to the STAR-D study, three measures of efficacy were employed: remitters (HAMD-17 score 7 or less at end of treatment), responders (HAMD-17 50% reduction from baseline score at end of treatment) and HAMD-17 total score (change from baseline at end of treatment). Further, to test a possible dose of NSAID effect, two dose levels were tested: subjects taking any NSAID any time and subjects taking daily aspirin and other NSAIDs."}, "[5]": {"conditions": "High NSAID (daily aspirin and other NSAIDs)"}, "[6]": {"conditions": "High NSAID (daily aspirin and other NSAIDs), listed as fluoxetine"}, "[7]": {"conditions": "no NSAID (None), comparison to Any NSAID"}, "[8]": {"conditions": "no NSAID (None), comparison to High NSAID"}, "[9]": {"conditions": "subjects taking any NSAID any time"}},
  "data": [
    {"smiles": "c1cnc(N2CCNCC2)nc1", "note": "[1-PP, 1-(2-pyrimidinyl)piperazine]", "values": [
      {"measurement": "Action at presynaptic α-2-adrenoceptor", "setting": "[1]", "result": "antagonist"},
      {"measurement": "Antidepressant-like characteristics in pre-clinical tests", "setting": "[2]", "result": "did not exhibit antidepressant-like characteristics"}
    ]},
    {"smiles": "CC1(C)CC(=O)N(CCCCN2CCN(c3ncccn3)CC2)C(=O)C1O", "note": "(stereo not drawn) [3′-OH gepirone]", "values": [
      {"measurement": "Affinity for 5-HT receptors", "setting": "5-HT receptors", "result": "significant affinity"},
      {"measurement": "Agonism at post-synaptic receptors in the hippocampus", "setting": "[3]", "result": "full agonism"}
    ]},
    {"smiles": "CNCCC(Oc1ccc(C(F)(F)F)cc1)c1ccccc1", "note": "(stereo not drawn) [Fluoxetine]", "values": [
      {"measurement": "Clinical outcome", "setting": "[4]", "result": "no improvement"},
      {"measurement": "HAMD-17 score after treatment", "setting": "[4]; initial HAMD-17 16, after 8 weeks of treatment", "result": 20},
      {"measurement": "HAMD-17 CFB (change from baseline)", "setting": "depressed subjects; [5]", "result": "−9.03"},
      {"measurement": "Remitters (HAMD-17 score of 7 or less after treatment)", "setting": "depressed subjects; [5]", "result": 27, "unit": "%"},
      {"measurement": "Responders (50% improvement in HAMD-17)", "setting": "depressed subjects; [5]", "result": 45, "unit": "%"},
      {"measurement": "HAMD-17 CFB (change from baseline)", "setting": "depressed subjects; [6]", "result": "−9.04"},
      {"measurement": "Responders (50% improvement in HAMD-17)", "setting": "depressed subjects; [6]", "result": 45, "unit": "%"},
      {"measurement": "Effect of NSAIDs on antidepressant efficacy", "setting": "depressed subjects; either NSAID dose level, three efficacy measures", "result": "NSAIDs interfere with the antidepressant activity"},
      {"measurement": "HAMD-17 CFB (change from baseline)", "setting": "depressed subjects; [7]", "result": "−10.5"},
      {"measurement": "Remitters (HAMD-17 score of 7 or less after treatment)", "setting": "depressed subjects; [7]", "result": 28.3, "unit": "%"},
      {"measurement": "Responders (50% improvement in HAMD-17)", "setting": "depressed subjects; [7]", "result": 51, "unit": "%"},
      {"measurement": "Remitters (HAMD-17 score of 7 or less after treatment)", "setting": "depressed subjects; [8]", "result": 32, "unit": "%"},
      {"measurement": "Responders (50% improvement in HAMD-17)", "setting": "depressed subjects; [8]", "result": 55, "unit": "%"},
      {"measurement": "Responders (50% improvement in HAMD-17)", "setting": "depressed subjects; no NSAID (None), comparison to High NSAID, listed as fluoxetine", "result": 55, "unit": "%"},
      {"measurement": "HAMD-17 CFB (change from baseline)", "setting": "depressed subjects; [9]", "result": "−9.57"},
      {"measurement": "Remitters (HAMD-17 score of 7 or less after treatment)", "setting": "depressed subjects; [9]", "result": 29, "unit": "%"},
      {"measurement": "Responders (50% improvement in HAMD-17)", "setting": "depressed subjects; [9]", "result": 48, "unit": "%"}
    ]}
  ]
}
